Measurements from patent US7288630B2, “Potassium channel KCNQ5 and sequences encoding the same” (NeuroSearch A/S, priority 1999, dated 2007).

Target: T1, KCNQ5 (Homo sapiens, UniProt Q9NR82)
T1 construct: A complete cDNA was assembled and cloned into the oocyte expression vector PTLN; expressed in transfected cells; host or cells: Xenopus oocytes injected with cRNA from pTLN
Assay: Two-electrode voltage clamp of KCNQ5 homomers expressed in Xenopus oocytes
Format: cell-based
Experimental: KCNQ5 was expressed in Xenopus oocytes and its activity was investigated by two-electrode voltage clamping.
After linearization of the KCNQ5-containing pTLN vector with Hpal, capped cRNA was transcribed in vitro using the mMessage mMachine cRNA synthesis kit (Ambion). Usually 5-15 ng of cRNA were injected into Xenopus oocytes previously isolated by manual defolliculation and short collagenase treatment. In co-expression experiments cRNAs were injected at a 1:1 ratio. Oocytes were kept at 17° C. in modified Barth's solution (90 mM NaCl, 1 mM KCl, 0.41 mM CaCl2, 0.33 mM Ca(NO3)2, 0.82 mM MgSO4, 10 mM HEPES, 100 U penicillin—100 μg streptomycin/ml, pH 7.6).
Standard two-electrode voltage-clamp measurements were performed at room temperature 2-4 days after injection using a Turbotec 05 amplifier (npi instruments, Tamm, Germany) and pClamp 5.5 software (Axon Instruments). Currents were usually recorded in ND98 solution (see Table 2). Linopirdine (RBI, Natick, Mass.) was prepared as a 100 mM stock solution in DMSO and added to a final concentration of 200 μM to ND98.
To determine the voltage dependence of apparent open probability, oocytes were clamped for 2 seconds to values between −80 mV to +40 mV, in 10 mV steps, followed by a constant −30 mV test pulse. Tail currents extrapolated to t=0 were obtained from a mono-exponential fit, normalised to the value at 0 mV and used for the analysis of apparent popen. Data analysis used PClamp6 and Microcal Origin 5.0.

T1 sequence (Q9NR82 36-932): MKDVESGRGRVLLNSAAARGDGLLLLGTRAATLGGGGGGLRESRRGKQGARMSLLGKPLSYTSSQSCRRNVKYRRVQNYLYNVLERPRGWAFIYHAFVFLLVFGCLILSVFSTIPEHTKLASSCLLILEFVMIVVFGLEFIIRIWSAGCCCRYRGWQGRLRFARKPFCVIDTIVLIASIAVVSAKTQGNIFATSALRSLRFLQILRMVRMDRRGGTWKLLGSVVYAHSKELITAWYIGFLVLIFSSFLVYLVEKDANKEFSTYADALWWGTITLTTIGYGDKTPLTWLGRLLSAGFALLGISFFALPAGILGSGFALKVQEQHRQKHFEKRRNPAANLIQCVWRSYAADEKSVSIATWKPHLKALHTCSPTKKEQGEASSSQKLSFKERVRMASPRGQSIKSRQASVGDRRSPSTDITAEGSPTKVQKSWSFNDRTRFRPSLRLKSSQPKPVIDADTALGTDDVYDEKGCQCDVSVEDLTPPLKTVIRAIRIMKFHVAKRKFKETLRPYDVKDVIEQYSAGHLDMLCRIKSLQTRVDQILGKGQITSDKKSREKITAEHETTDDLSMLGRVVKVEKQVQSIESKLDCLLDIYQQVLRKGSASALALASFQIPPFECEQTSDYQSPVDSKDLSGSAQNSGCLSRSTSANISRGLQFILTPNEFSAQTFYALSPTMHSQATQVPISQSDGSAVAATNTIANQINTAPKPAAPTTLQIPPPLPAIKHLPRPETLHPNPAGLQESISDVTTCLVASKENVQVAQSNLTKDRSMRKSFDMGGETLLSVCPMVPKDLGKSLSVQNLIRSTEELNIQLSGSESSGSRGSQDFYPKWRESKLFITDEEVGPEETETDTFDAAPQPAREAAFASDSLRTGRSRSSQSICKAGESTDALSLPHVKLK

[Ba+2] [Ba^++]
inhibition of KCNQ5 currents (5 mM): more than 80%

O=C(O)c1cccnc1Nc1cccc(C(F)(F)F)c1 [Niflumic acid, niflumic acid]
shift of voltage dependence of apparent popen towards negative potentials (500 μM niflumic acid (FIG. 5B)): about 20 mV

O=C1c2ccccc2C(Cc2ccncc2)(Cc2ccncc2)c2ccccc21 [XE991, 10,10-bis-(4-pyridinyl-methyl)-9-(10H)-antracenone]
IC50 (extracellular application, Xenopus oocytes, from fit curves (FIG. 5A), read-out: IC50, inhibition of KCNQ5 homomers): 65 ± 4 µM
